Patent US11912701B2, “Protein kinase inhibitors for promoting liver regeneration or reducing or preventing hepatocyte death” (HEPAREGENIX GMBH, priority 2018, dated 2024)

Experiments:
JNK1 [1] = target: T1, JNK1 (Homo sapiens, UniProt P45983); test: KINOMEscan competition binding assay, JNK1; set-up: M1/Q384; host or cells: HEK-293; conditions: ratio PoC (off-target)/PoC (MKK4)
Method in brief: (§1)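 DNA-tagged kinases expressed in HEK-293 cells compete between immobilized ligand on blocked beads and test compound at 100 nM; kinase retained on beads quantified by qPCR of the tag.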
Target sequence in this assay (P45983 1-384 isoform P45983-2): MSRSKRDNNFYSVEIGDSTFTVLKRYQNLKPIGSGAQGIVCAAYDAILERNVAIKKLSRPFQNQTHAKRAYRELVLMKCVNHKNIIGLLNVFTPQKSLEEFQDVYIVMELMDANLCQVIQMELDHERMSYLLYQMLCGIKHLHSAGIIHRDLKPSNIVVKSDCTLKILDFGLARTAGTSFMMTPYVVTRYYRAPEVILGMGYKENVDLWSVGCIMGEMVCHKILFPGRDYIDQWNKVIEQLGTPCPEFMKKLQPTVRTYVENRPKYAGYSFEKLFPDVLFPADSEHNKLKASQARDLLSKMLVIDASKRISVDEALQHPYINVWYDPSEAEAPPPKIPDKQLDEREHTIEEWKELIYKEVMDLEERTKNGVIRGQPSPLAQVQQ

BRaf [2] = target: T2, BRaf (Homo sapiens, UniProt P15056); test: 33PanQinase enzyme assay, BRaf; assay type: biochemical; conditions: ratio IC50(BRaf)/IC50(MKK4)
T2 construct: purchased ProQinase GmbH, Freiburg, Germany (33PanQinase Assay Service)
Method in brief: (§2)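 Off-target selectivity is the ratio IC50(off-target)/IC50(MKK4), with IC50 values from least-squares fitting and single-point data as % residual activity. Reactions of enzyme/substrate mix, ATP and compound ran 60 min at 30° C before H3PO4 stop; ^33P incorporation read on a scintillation counter.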

JNK1 [3] = target: T1, JNK1; test: 33PanQinase enzyme assay, JNK1; assay type: biochemical; set-up: purchased ProQinase GmbH, Freiburg, Germany (33PanQinase Assay Service); conditions: ratio IC50(JNK1)/IC50(MKK4)
Method in brief: as §2
Target sequence in this assay (P45983 whole entry): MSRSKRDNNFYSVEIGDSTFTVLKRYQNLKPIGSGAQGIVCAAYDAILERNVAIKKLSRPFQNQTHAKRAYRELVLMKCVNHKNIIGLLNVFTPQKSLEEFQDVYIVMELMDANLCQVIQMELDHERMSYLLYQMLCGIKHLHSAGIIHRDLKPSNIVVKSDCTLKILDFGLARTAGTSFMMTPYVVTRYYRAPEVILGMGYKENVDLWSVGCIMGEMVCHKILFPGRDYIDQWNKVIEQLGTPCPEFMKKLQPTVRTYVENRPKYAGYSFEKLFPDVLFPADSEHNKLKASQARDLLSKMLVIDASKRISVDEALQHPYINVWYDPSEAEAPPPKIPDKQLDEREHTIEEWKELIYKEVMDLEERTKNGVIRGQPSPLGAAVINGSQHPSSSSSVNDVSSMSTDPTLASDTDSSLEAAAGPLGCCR

MKK4 [4] = target: T3, MKK4 (Homo sapiens, UniProt P45985); test: KINOMEscan competition binding assay, MKK4; conditions: residual percent of control binding (PoC) at 100 nM
T3 construct: S84/D399; host or cells: HEK-293
T3 sequence (P45985 84-399): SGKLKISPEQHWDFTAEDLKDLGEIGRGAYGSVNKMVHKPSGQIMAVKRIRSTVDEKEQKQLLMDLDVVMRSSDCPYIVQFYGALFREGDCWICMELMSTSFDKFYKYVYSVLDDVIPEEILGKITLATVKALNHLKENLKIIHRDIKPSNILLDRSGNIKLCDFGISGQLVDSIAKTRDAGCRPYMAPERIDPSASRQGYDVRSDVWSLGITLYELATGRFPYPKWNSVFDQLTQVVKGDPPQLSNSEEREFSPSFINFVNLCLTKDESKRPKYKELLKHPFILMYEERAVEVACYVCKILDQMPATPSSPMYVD
Method in brief: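 Tested at 100 nM and reported as percent of control binding (PoC). MKK4 was produced in HEK-293 cells and DNA-tagged. Displacement from ligand-coated, blocked beads was read by qPCR of eluted kinase.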

MKK7 [5] = target: T4, MKK7 (Homo sapiens, UniProt O14733); test: 33PanQinase enzyme assay, MKK7; assay type: biochemical; set-up: purchased ProQinase GmbH, Freiburg, Germany (33PanQinase Assay Service); conditions: ratio IC50(MKK7)/IC50(MKK4)
T4 sequence (O14733 1-419): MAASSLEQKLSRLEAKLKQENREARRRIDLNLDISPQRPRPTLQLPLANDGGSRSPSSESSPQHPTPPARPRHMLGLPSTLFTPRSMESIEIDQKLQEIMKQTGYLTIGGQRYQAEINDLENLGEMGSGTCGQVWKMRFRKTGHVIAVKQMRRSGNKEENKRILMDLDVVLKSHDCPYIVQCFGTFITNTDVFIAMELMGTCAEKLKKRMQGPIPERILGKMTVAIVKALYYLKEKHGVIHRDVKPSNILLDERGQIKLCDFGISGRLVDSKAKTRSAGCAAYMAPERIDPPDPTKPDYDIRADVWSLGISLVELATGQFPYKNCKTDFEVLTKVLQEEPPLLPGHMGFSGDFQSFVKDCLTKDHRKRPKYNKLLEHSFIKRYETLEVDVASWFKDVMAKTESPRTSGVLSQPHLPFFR
Method in brief: as §2

MKK7 [6] = target: T4, MKK7; test: KINOMEscan competition binding assay, MKK7; set-up: M1/R419; host or cells: HEK-293; conditions: ratio PoC (off-target)/PoC (MKK4)
Method in brief: as §1

MKK4 [7] = target: T5, MKK4 (Homo sapiens, UniProt P45985); test: 33PanQinase enzyme assay, MKK4; assay type: biochemical; conditions: assay 'IC50'; read-out: Potency MKK4 (IC50)
T5 construct: purchased ProQinase GmbH, Freiburg, Germany (33PanQinase Assay Service)
T5 sequence (P45985 1-399): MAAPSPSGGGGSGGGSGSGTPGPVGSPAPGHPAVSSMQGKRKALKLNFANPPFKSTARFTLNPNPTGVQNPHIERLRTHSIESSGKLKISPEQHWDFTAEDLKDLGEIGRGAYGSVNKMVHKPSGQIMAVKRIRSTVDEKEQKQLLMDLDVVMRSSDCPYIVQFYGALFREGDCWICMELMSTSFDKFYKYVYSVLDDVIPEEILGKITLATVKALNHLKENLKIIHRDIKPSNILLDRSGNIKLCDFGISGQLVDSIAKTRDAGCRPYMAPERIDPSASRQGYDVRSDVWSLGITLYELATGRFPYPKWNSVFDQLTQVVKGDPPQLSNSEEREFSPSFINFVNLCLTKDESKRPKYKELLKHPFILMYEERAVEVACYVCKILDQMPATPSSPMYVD
Method in brief: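 Inhibition measured as 33Pi transfer to substrate after a 60-min, 30 °C reaction, acid-stopped and scintillation-counted.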

BRaf [8] = target: T2, BRaf; test: KINOMEscan competition binding assay, BRaf; conditions: ratio PoC (off-target)/PoC (MKK4)
Method in brief: as §1

T2 sequence (P15056 whole entry, species assumed): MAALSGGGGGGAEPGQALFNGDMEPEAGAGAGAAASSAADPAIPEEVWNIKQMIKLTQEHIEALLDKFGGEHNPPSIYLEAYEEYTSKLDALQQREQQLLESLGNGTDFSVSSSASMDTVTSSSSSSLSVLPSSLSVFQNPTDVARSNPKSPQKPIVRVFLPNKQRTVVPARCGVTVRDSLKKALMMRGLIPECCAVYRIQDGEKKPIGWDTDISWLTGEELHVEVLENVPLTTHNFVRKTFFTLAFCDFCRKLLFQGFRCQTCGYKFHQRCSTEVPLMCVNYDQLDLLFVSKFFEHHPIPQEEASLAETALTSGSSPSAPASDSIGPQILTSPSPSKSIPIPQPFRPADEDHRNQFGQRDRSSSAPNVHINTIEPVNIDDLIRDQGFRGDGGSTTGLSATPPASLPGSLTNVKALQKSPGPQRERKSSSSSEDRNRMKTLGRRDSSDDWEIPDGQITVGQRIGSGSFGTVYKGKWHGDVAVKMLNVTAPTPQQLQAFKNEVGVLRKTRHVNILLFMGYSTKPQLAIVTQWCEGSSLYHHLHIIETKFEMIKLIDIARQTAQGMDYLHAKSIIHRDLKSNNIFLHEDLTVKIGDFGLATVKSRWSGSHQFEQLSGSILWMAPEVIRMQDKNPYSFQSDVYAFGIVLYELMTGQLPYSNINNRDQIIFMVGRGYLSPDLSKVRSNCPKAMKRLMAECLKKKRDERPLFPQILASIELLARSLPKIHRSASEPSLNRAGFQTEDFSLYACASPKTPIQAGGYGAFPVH

SMILES	selectivity based on % Ctrl @100 nM vs. JNK1 (JNK1 [1])	Selectivity Braf, IC50(off-target)/IC50(MKK4) (BRaf [2])	Selectivity JNK1, IC50(off-target)/IC50(MKK4) (JNK1 [3])	MKK4 [% Ctrl @ 100 nM (MKK4 [4])	Selectivity IVIKK7, IC50(off-target)/IC50(MKK4) (MKK7 [5])	selectivity based on % Ctrl @100 nM vs. MKK7 (MKK7 [6])	IC50 (MKK4 [7])	selectivity based on % Ctrl @100 nM vs. Braf (BRaf [8])
CCCS(=O)(=O)Nc1ccc(F)c(C(=O)c2c[nH]c3ncc(-c4cccnn4)cc23)c1F [Example 48]	++ (100 ≥ ratio > 10)	◯ (3 ≥ IC50(off-target)/IC50(MKK4))	◯ (3 ≥ IC50(off-target)/IC50(MKK4))	+ (3 ≤ PoC < 30)	++ (100 ≥ IC50(off-target)/IC50(MKK4) > 10)	++ (100 ≥ ratio > 10)	1000 to 10000 nM	◯ (3 ≥ Ratio)
CCCS(=O)(=O)Nc1ccc(F)c(C(=O)c2c[nH]c3ncc(-c4ccc(S(N)(=O)=O)nc4)cc23)c1F [Example 53]	+++ (Ratio > 100)	◯ (3 ≥ IC50(off-target)/IC50(MKK4))	◯ (3 ≥ IC50(off-target)/IC50(MKK4))	+++ (PoC < 1)	+++ (IC50(off-target)/IC50(MKK4) > 100)	+++ (Ratio > 100)	100 to 1000 nM	+ (10 ≥ ratio > 3)
CCCS(=O)(=O)Nc1ccc(F)c(C(=O)c2c[nH]c3ncc(-c4ccc(S(C)(=O)=O)nc4)cc23)c1F [Example 77, N-(2,4-difluoro-3-(5-(6-(methylsulfonyl)pyridin-3-yl)-1H-pyrrolo[2,3-b]pyridine-3-carbonyl)phenyl)propane-1-sulfonamide]	+++ (Ratio > 100)	◯ (3 ≥ IC50(off-target)/IC50(MKK4))	+ (10 ≥ IC50(off-target)/IC50(MKK4) > 3)	+++ (PoC < 1)	+++ (IC50(off-target)/IC50(MKK4) > 100)	+++ (Ratio > 100)	100 to 1000 nM	◯ (3 ≥ Ratio)
O=C(c1c(F)ccc(NS(=O)(=O)CCC(F)(F)F)c1F)c1c[nH]c2ncc(-c3ccc(N4CCOCC4)nc3)cc12 [Example 79, N-(2,4-difluoro-3-(5-(6-morpholinopyridin-3-yl)-1H-pyrrolo[2,3-b]pyridine-3-carbonyl)phenyl)-3,3,3-trifluoropropane-1-sulfonamide]	+++ (Ratio > 100)	+ (10 ≥ IC50(off-target)/IC50(MKK4) > 3)	++ (100 ≥ IC50(off-target)/IC50(MKK4) > 10)	+++ (PoC < 1)	+++ (IC50(off-target)/IC50(MKK4) > 100)	+++ (Ratio > 100)	< 100 nM	+++ (Ratio > 100)
O=C(c1c(F)ccc(NS(=O)(=O)CCC(F)(F)F)c1F)c1c[nH]c2ncc(-c3ccc(N4CCS(=O)(=O)CC4)nc3)cc12 [Example 81, N-(3-(5-(6-(1,1-dioxidothiomorpholino)pyridin-3-yl)-1H-pyrrolo[2,3-b]pyridine-3-carbonyl)-2,4-difluorophenyl)-3,3,3-trifluoropropane-1-sulfonamide]	+++ (Ratio > 100)	+ (10 ≥ IC50(off-target)/IC50(MKK4) > 3)	++ (100 ≥ IC50(off-target)/IC50(MKK4) > 10)	+++ (PoC < 1)	+++ (IC50(off-target)/IC50(MKK4) > 100)	+++ (Ratio > 100)	< 100 nM	+++ (Ratio > 100)
CCCS(=O)(=O)Nc1ccc(F)c(C(=O)c2c[nH]c3ncc(-c4ccc(C5CCC5)cc4)cc23)c1F [Example 82, N-(3-(5-(4-cyclobutylphenyl)-1H-pyrrolo[2,3-b]pyridine-3-carbonyl)-2,4-difluorophenyl)propane-1-sulfonamide]	+++ (Ratio > 100)	◯ (3 ≥ IC50(off-target)/IC50(MKK4))	+ (10 ≥ IC50(off-target)/IC50(MKK4) > 3)	+++ (PoC < 1)	+++ (IC50(off-target)/IC50(MKK4) > 100)	+++ (Ratio > 100)	100 to 1000 nM	+++ (Ratio > 100)
CCCS(=O)(=O)Nc1ccc(F)c(C(=O)c2c[nH]c3ncc(C4CCNCC4)cc23)c1F [Example 241, N-(2,4-difluoro-3-(5-(piperidin-4-yl)-1-pyrrolo[2,3-b]pyridine-3-carbonyl)phenyl)propane-1-sulfonamide]	+ (10 ≥ ratio > 3)	–	◯ (3 ≥ IC50(off-target)/IC50(MKK4))	+ (3 ≤ PoC < 30)	+ (10 ≥ IC50(off-target)/IC50(MKK4) > 3)	+ (10 ≥ ratio > 3)	1000 to 10000 nM	◯ (3 ≥ Ratio)
CCCS(=O)(=O)Nc1ccc(F)c(C(=O)c2c[nH]c3ncc(C4=CCNCC4)cc23)c1F [Example 242]	+ (10 ≥ ratio > 3)	–	◯ (3 ≥ IC50(off-target)/IC50(MKK4))	+ (3 ≤ PoC < 30)	++ (100 ≥ IC50(off-target)/IC50(MKK4) > 10)	+ (10 ≥ ratio > 3)	> 10000 nM	◯ (3 ≥ Ratio)

More lines, now with the values ahead:

selectivity based on % Ctrl @100 nM vs. JNK1 (JNK1 [1])	Selectivity Braf, IC50(off-target)/IC50(MKK4) (BRaf [2])	Selectivity JNK1, IC50(off-target)/IC50(MKK4) (JNK1 [3])	MKK4 [% Ctrl @ 100 nM (MKK4 [4])	Selectivity IVIKK7, IC50(off-target)/IC50(MKK4) (MKK7 [5])	selectivity based on % Ctrl @100 nM vs. MKK7 (MKK7 [6])	IC50 (MKK4 [7])	selectivity based on % Ctrl @100 nM vs. Braf (BRaf [8])	SMILES
+++ (Ratio > 100)	◯ (3 ≥ IC50(off-target)/IC50(MKK4))	◯ (3 ≥ IC50(off-target)/IC50(MKK4))	+++ (PoC < 1)	+++ (IC50(off-target)/IC50(MKK4) > 100)	+++ (Ratio > 100)	100 to 1000 nM	◯ (3 ≥ Ratio)	CCCS(=O)(=O)Nc1ccc(F)c(C(=O)c2c[nH]c3ncc(-c4ccc(N)nc4)cc23)c1F [Example 50]
+++ (Ratio > 100)	–	+++ (IC50(off-target)/IC50(MKK4) > 100)	+++ (PoC < 1)	+++ (IC50(off-target)/IC50(MKK4) > 100)	+++ (Ratio > 100)	< 100 nM	+++ (Ratio > 100)	CS(=O)(=O)Nc1c(F)ccc(C(=O)c2c[nH]c3ncc(-c4ccncc4)cc23)c1F [Example 234, N-(2,6-difluoro-3-(5-(pyridin-4-yl)-1H-pyrrolo[2,3-b]pyridine-3-carbonyl)phenyl)methanesulfonamide]
